Test results published in patent EP3820574B1, “3-(5-AMINO-1-OXOISOINDOLIN-2-YL)PIPERIDINE-2,6-DIONE DERIVATIVES AND THEIR USE IN THE TREATMENT OF IKAROS FAMILY ZINC FINGER 2 (IKZF2)-DEPENDENT DISEASES” (Novartis AG, priority 2018, dated 2020).

Legend:
IKZF2 = IKZF2 (Homo sapiens, UniProt Q96SW2+Q9UKS7); assay: Prolabel quantification of IKZF2 protein levels in 293GT cells; conditions: for inhibition at 10 µM: read-out: IKZF2 % protein reduction at 10 µM, 24 h; for DC50: read-out: IKZF2 EC50, Helios (IKZF2) degradation, prolabel-tagged fusion protein in 293GT cells, highest concentration 50 µM
Protocol: (§1) The Prolabel system from DiscoverX was used to develop high-throughput and quantitative assays to measure changes in IKZF1, IKZF2, and GSPT1 protein levels in response to compounds. […] The complementary fragment of beta-galactosidase (from DiscoverX), is added to the prolabel tag to form an active beta galactosidase enzyme whose activity can be precisely measured. In this way, the levels of a fusion protein with the prolabel tag can be quantified in cell lysates.
(§2) Lentiviral vectors, based on the Invitrogen pLenti6.2/V5 DEST backbone, were constructed that placed the prolabel tag upstream of IKZF1, IKZF2, or GSPT1 and expressed the fusion protein from a CMV promoter.
(§3) To ensure moderate and consistent expression of the prolabel fusion proteins across all cells in the population, stable cell lines were constructed from cells expressing a single copy of the construct. Lentivirus packaged with the constructs was made using the Virapower kit from Invitrogen.
(§4) The levels of prolabel tagged fusion proteins in compound treated cell lines were measured as follows: • Day 1, Cells were diluted to 1.0 x 10^6 cells/ml in normal growth medium. 17.5 µL of cells were plated in each well of a solid white 384 well plate. Plates were incubated overnight in a 37 °C tissue culture incubator. • Day 2, Serial dilutions of compounds were made in 384 well plates from 10 mM stocks. 15 µL of DMSO was added to each well of a 384 well plate. In the first column 15µL of stock compound was added. The solution was mixed and 15 µL was transferred to the next column. This was repeated until 20 two-fold dilutions were prepared. 2.5 µL of diluted compounds were transferred into 60 µL of cell culture medium in another 384 well plate, and mixed well. 2.5 µL of this mixture was added to the plated cells. The final DMSO concentration was 0.5% and the highest concentration of compound was 50 µM. Plates were incubated overnight (e.g., about 14 h, 18 h, or 24 h) in a 37 °C tissue culture incubator. • Day 3, Plates were removed from the incubator and allowed to equilibrate at rt for 30 minutes. Prolabel substrate (DiscoverX PathHunter Prolabel Detection Kit, User manual: 93-0180) was added as described by the manufacturers protocols. Plates were incubated at rt for three hours and luminescence was read using an Envision reader (Perkin Elmer) Data was analyzed and visualized using the Spotfire software package.

IKZF1 = IKZF1 (Homo sapiens, UniProt Q13422+Q96SW2); assay: Prolabel quantification of IKZF1 protein levels in 293GT cells; conditions: read-out: IKZF1 EC50; Ikaros (IKZF1) degradation, prolabel-tagged fusion protein in 293GT cells; highest concentration 50 µM
Protocol: as §1, §2, §3, §4

GSPT1 = GSPT1 (Homo sapiens, UniProt P15170+Q96SW2); conditions: read-out: GSPT1 EC50; GSPT1 degradation, prolabel-tagged fusion protein in 293GT cells; highest concentration 50 µM
Sequence of GSPT1 (P15170 whole entry, the tested form may be a part): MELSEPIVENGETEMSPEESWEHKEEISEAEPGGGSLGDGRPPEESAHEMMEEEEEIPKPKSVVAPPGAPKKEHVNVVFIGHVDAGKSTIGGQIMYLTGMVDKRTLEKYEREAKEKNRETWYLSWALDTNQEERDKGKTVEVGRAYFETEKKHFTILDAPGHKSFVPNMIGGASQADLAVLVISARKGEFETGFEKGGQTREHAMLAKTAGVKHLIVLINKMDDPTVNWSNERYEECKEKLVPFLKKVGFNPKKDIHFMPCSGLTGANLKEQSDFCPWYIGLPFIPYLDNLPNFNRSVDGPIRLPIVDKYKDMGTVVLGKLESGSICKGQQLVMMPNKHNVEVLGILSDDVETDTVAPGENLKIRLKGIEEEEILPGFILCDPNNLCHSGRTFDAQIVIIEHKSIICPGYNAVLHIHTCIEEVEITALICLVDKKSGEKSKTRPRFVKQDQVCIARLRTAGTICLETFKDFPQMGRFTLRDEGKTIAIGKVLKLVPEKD
Sequence of GSPT1 (Q96SW2 whole entry, the tested form may be a part): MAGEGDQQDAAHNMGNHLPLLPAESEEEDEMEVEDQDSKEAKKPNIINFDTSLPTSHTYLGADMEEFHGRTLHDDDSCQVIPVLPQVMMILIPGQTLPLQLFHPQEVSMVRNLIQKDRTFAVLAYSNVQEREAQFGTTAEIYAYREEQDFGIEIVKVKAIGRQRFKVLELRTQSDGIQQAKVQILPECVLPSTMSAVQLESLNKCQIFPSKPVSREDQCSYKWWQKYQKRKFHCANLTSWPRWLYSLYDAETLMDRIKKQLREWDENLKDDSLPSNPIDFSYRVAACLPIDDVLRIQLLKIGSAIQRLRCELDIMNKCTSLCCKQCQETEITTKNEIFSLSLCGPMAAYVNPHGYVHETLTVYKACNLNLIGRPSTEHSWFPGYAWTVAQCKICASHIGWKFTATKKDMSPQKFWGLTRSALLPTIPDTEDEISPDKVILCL
Sequence of GSPT1 (Q16531 whole entry partner, the tested form may be a part): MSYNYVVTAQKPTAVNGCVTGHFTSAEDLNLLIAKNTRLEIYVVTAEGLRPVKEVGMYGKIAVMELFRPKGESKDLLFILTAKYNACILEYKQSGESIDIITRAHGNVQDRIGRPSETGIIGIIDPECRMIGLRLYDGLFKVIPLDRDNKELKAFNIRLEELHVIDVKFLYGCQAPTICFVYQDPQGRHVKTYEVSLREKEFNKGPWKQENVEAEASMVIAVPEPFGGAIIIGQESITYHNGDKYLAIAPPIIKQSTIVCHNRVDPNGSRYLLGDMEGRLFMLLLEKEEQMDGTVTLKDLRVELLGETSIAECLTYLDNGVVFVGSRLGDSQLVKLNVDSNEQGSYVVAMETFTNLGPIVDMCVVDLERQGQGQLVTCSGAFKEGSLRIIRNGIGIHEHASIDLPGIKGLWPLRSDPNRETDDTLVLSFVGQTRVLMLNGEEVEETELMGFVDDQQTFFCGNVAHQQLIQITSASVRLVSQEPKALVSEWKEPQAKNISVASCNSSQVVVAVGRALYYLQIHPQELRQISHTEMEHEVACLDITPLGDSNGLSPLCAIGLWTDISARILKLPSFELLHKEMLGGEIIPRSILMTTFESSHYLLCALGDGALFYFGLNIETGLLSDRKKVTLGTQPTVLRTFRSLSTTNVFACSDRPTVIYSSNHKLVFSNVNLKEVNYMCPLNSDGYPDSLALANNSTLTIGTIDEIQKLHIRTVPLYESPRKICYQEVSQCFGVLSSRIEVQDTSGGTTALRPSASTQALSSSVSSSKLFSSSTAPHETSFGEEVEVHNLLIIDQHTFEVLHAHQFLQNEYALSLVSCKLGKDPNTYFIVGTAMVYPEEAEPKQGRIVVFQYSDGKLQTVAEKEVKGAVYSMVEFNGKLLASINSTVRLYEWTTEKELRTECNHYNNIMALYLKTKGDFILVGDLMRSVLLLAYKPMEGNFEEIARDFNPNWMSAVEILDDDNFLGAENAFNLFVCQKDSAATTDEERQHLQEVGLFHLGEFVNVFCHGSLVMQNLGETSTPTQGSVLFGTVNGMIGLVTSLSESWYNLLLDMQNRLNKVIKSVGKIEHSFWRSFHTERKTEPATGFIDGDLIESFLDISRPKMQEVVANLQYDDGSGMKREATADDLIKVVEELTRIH
Protocol: as §1, §2, §3, §4

Sequence of IKZF1 (Q13422 whole entry, the tested form may be a part): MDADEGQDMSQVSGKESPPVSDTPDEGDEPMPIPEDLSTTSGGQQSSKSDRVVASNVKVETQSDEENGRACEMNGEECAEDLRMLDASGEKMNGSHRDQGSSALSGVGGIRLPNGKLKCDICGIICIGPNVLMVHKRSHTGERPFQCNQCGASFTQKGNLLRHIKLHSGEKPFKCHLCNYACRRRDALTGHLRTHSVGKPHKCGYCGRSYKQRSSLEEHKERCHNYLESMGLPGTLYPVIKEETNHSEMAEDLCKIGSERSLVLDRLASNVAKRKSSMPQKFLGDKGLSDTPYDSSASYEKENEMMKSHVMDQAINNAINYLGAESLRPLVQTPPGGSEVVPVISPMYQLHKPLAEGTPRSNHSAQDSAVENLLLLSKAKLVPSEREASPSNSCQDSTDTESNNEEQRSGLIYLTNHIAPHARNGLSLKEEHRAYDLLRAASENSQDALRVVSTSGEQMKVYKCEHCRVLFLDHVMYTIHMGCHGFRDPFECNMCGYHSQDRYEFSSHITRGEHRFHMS
Sequence of IKZF1 (Q96SW2 whole entry, the tested form may be a part): as the sequence (Q96SW2 whole entry, the tested form may be a part) above
Sequence of IKZF1 (Q16531 whole entry partner, the tested form may be a part): as the sequence (Q16531 whole entry partner, the tested form may be a part) above
Sequence of IKZF2 (Q9UKS7 whole entry, the tested form may be a part): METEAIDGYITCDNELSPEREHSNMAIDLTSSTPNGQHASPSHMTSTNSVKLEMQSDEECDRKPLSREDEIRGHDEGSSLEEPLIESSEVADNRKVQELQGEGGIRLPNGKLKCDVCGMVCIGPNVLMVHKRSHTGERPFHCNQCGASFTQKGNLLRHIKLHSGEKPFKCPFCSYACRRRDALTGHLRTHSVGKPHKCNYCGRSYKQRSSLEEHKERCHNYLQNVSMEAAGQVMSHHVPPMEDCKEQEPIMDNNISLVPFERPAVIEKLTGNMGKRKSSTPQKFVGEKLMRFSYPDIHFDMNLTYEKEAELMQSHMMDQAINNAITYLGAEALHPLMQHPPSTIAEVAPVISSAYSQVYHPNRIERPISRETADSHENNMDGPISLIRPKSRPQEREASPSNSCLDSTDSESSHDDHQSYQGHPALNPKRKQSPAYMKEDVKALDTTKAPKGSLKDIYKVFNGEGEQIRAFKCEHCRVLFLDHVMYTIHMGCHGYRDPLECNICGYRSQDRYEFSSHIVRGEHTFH
Sequence of IKZF2 (Q96SW2 whole entry, the tested form may be a part): as the sequence (Q96SW2 whole entry, the tested form may be a part) above
Sequence of IKZF2 (Q16531 whole entry partner, the tested form may be a part): as the sequence (Q16531 whole entry partner, the tested form may be a part) above

Row | Compound | inhibition at 10 µM (IKZF2; 24 h) [%] | DC50 (IKZF1) [nM] | DC50 (GSPT1) [nM] | DC50 (IKZF2) [nM] | IKZF2 % protein reduction at 10 µM, 24 h (IKZF2; 10 µM, 24 h, 293GT cells) [%]
1 | O=C1CCC(N2Cc3cc(N[C@H]4CCCC[C@@H]4O)ccc3C2=O)C(=O)N1 (stereo partly drawn) [Compound I-1, 3-(5-(((1S,2S)-2-hydroxycyclohexyl)amino)-1-oxoisoindolin-2-yl)piperidine-2,6-dione] | 20 | > 30000 | > 30000 | – | –
2 | CN[C@H]1CCCC[C@@H]1Nc1ccc2c(c1)CN(C1CCC(=O)NC1=O)C2=O (stereo partly drawn) [Compound I-10, 3-(5-(((1S,2S)-2-(methylamino)cyclohexyl)amino)-1-oxoisoindolin-2-yl)piperidine-2,6-dione] | 50 | > 30000 | > 50000 | 990 | –
3 | CCN[C@H]1CCCC[C@@H]1Nc1ccc2c(c1)CN(C1CCC(=O)NC1=O)C2=O (stereo partly drawn) [Compound I-40, 3-(5-(((1S,2S)-2-(ethylamino)cyclohexyl)amino)-1-oxoisoindolin-2-yl)piperidine-2,6-dione] | 45 | > 30000 | – | 1670 | –
4 | CN(C)[C@H]1CCCC[C@@H]1Nc1ccc2c(c1)C(=O)N(C1CCC(=O)NC1=O)C2=O (stereo partly drawn) [Compound I-153, 5-(((1S,2S)-2-(dimethylamino)cyclohexyl)amino)-2-(2,6-dioxopiperidin-3-yl)isoindoline-1,3-dione] | 50 | > 30000 | > 50000 | 410 | –
5 | CN[C@@H]1CCCC[C@H]1N(C)c1ccc2c(c1)CN(C1CCC(=O)NC1=O)C2=O (relative stereo) [Compound I-9, trans-3-(5-(methyl(-2-(methylamino)cyclohexyl)amino)-1-oxoisoindolin-2-yl)piperidine-2,6-dione] | – | > 50000 | > 50000 | 113 | 65
6 | CCN[C@H]1CCCC[C@@H]1N(C)c1ccc2c(c1)C(=O)N(C1CCC(=O)NC1=O)C2=O (stereo partly drawn) [Compound I-104, 2-(2,6-dioxopiperidin-3-yl)-5-(((1S,2S)-2-(ethylamino)cyclohexyl)(methyl)amino)isoindoline-1,3-dione] | 80 | 51 | > 50000 | 49 | –
7 | N[C@H]1CCCC[C@@H]1Nc1ccc2c(c1)CN(C1CCC(=O)NC1=O)C2=O (stereo partly drawn) [Compound I-7, 3-(5-(((1S,2S)-2-aminocyclohexyl)amino)-1-oxoisoindolin-2-yl)piperidine-2,6-dione] | 30 | > 50000 | – | 183 | –
8 | CN[C@H]1CCCCC[C@@H]1N(C)c1ccc2c(c1)C(=O)N(C1CCC(=O)NC1=O)C2=O (stereo partly drawn) [Compound I-109, 2-(2,6-dioxopiperidin-3-yl)-5-(methyl((1S,2S)-2-(methylamino)cycloheptyl)amino)isoindoline-1,3-dione] | 70 | > 30000 | > 50000 | 230 | –
9 | CN(c1ccc2c(c1)C(=O)N(C1CCC(=O)NC1=O)C2=O)[C@H]1CCCC[C@@H]1NCc1cccnc1 (stereo partly drawn) [Compound I-143, 2-(2,6-dioxopiperidin-3-yl)-5-(methyl((1S,2S)-2-((pyridin-3-ylmethyl)amino)cyclohexyl)amino)isoindoline-1,3-dione] | 40 | > 30000 | – | 23100 | –
10 | CN(Cc1ccccc1)[C@H]1CCCC[C@@H]1N(C)c1ccc2c(c1)CN(C1CCC(=O)NC1=O)C2=O (stereo partly drawn) [Compound I-6, 3-(5-(((1S,2S)-2-(benzyl(methyl)amino)cyclohexyl)(methyl)amino)-1-oxoisoindolin-2-yl)piperidine-2,6-dione] | 65 | > 50000 | – | 43 | –
11 | CC(C)CN[C@H]1CCCC[C@@H]1Nc1ccc2c(c1)CN(C1CCC(=O)NC1=O)C2=O (stereo partly drawn) [Compound I-15, 3-(5-(((1S,2S)-2-(isobutylamino)cyclohexyl)amino)-1-oxoisoindolin-2-yl)piperidine-2,6-dione] | 60 | > 30000 | – | 94 | –
12 | O=C1CCC(N2Cc3cc(N[C@H]4CCCC[C@@H]4NCC4CCCCC4)ccc3C2=O)C(=O)N1 (stereo partly drawn) [Compound I-12, 3-(5-(((1S,2S)-2-((cyclohexylmethyl)amino)cyclohexyl)amino)-1-oxoisoindolin-2-yl)piperidine-2,6-dione] | 65 | > 30000 | – | 36 | –
13 | CN(C)[C@H]1CCCC[C@@H]1N(C)c1ccc2c(c1)C(=O)N(C1CCC(=O)NC1=O)C2=O (stereo partly drawn) [Compound I-96, 5-(((1S,2S)-2-(dimethylamino)cyclohexyl)(methyl)amino)-2-(2,6-dioxopiperidin-3-yl)isoindoline-1,3-dione] | 50 | 2370 | > 50000 | 1570 | –
14 | CN(c1ccc2c(c1)C(=O)N(C1CCC(=O)NC1=O)C2=O)[C@H]1CCCC[C@@H]1NCc1ccccc1 (stereo partly drawn) [Compound I-133, 5-(((1S,2S)-2-(benzylamino)cyclohexyl)(methyl)amino)-2-(2,6-dioxopiperidin-3-yl)isoindoline-1,3-dione] | 75 | > 30000 | – | 450 | –
15 | CN[C@H]1CCCC[C@@H]1N(C)c1ccc2c(c1)C(=O)N(C1CCC(=O)NC1=O)C2=O (stereo partly drawn) [Compound I-114, 2-(2,6-dioxopiperidin-3-yl)-5-(methyl((1S,2S)-2-(methylamino)cyclohexyl)amino)isoindoline-1,3-dione] | 70 | 290 | > 50000 | 24 | –
16 | CCN[C@H]1CCCC[C@@H]1N(CC)c1ccc2c(c1)CN(C1CCC(=O)NC1=O)C2=O (stereo partly drawn) [Compound I-55, 3-(5-(ethyl((1S,2S)-2-(ethylamino)cyclohexyl)amino)-1-oxoisoindolin-2-yl)piperidine-2,6-dione] | 10 | > 30000 | – | – | –
17 | CN[C@H]1CCC[C@@H]1N(C)c1ccc2c(c1)C(=O)N(C1CCC(=O)NC1=O)C2=O (stereo partly drawn) [Compound I-128, 2-(2,6-dioxopiperidin-3-yl)-5-(methyl((1S,2S)-2-(methylamino)cyclopentyl)amino) isoindoline-1,3-dione] | 30 | > 30000 | – | > 30000 | –
18 | CC(C)N[C@H]1CCCC[C@@H]1Nc1ccc2c(c1)CN(C1CCC(=O)NC1=O)C2=O (stereo partly drawn) [Compound I-45, 3-(5-(((1S,2S)-2-(isopropylamino)cyclohexyl)amino)-1-oxoisoindolin-2-yl)piperidine-2,6-dione] | 70 | > 30000 | > 50000 | 100 | –
19 | CN[C@@H]1CCCC[C@H]1N(C)c1ccc2c(c1)CN(C1CCC(=O)NC1=O)C2=O (stereo partly drawn) [Compound I-2, 3-(5-(methyl((1R,2R)-2-(methylamino)cyclohexyl)amino)-1-oxoisoindolin-2-yl)piperidine-2,6-dione] | 0 | > 30000 | > 30000 | > 30000 | –
20 | CN(c1ccc2c(c1)C(=O)N(C1CCC(=O)NC1=O)C2=O)[C@H]1CCCC[C@@H]1N (stereo partly drawn) [Compound I-99, 5-(((1S,2S)-2-aminocyclohexyl)(methyl)amino)-2-(2,6-dioxopiperidin-3-yl)isoindoline-1,3-dione] | 70 | 5200 | > 50000 | 150 | –
21 | O=C1CCC(N2Cc3cc(N[C@H]4CCCC[C@@H]4NCc4ccccc4)ccc3C2=O)C(=O)N1 (stereo partly drawn) [Compound I-3, 3-(5-(((1S,2S)-2-(benzylamino)cyclohexyl)amino)-1-oxoisoindolin-2-yl)piperidine-2,6-dione] | 65 | > 30000 | > 30000 | 29 | –
22 | CN(c1ccc2c(c1)C(=O)N(C1CCC(=O)NC1=O)C2=O)[C@H]1CCCC[C@@H]1NCC1(C(F)(F)F)CC1 (stereo partly drawn) [Compound I-138, 2-(2,6-dioxopiperidin-3-yl)-5-(methyl((1S,2S)-2-(((1-(trifluoromethyl)cyclopropyl)methyl)amino)cyclohexyl)amino)isoindoline-1,3-dione] | 30 | > 30000 | – | – | –
23 | CN[C@H]1CCCC[C@@H]1N(C)c1ccc2c(c1F)CN(C1CCC(=O)NC1=O)C2=O (stereo partly drawn) [Compound I-163, 3-(4-fluoro-5-(methyl((1S,2S)-2-(methylamino)cyclohexyl)amino)-1-oxoisoindolin-2-yl)piperidine-2,6-dione] | 80 | 570 | – | 66 | –
24 | CN(c1ccc2c(c1)C(=O)N(C1CCC(=O)NC1=O)C2=O)[C@H]1CCCC[C@@H]1NCC(=O)O (stereo partly drawn) [Compound I-148, ((1S,2S)-2-((2-(2,6-dioxopiperidin-3-yl)-1,3-dioxoisoindolin-5-yl)(methyl)amino)cyclohexyl)glycine] | 40 | > 30000 | – | 11300 | –
25 | O=C1CCC(N2Cc3cc(N[C@H]4CCCC[C@@H]4OCc4ccccc4)ccc3C2=O)C(=O)N1 (stereo partly drawn) [Compound I-4, 3-(5-(((1S,2S)-2-(benzyloxy)cyclohexyl)amino)-1-oxoisoindolin-2-yl)piperidine-2,6-dione] | – | – | > 30000 | – | –
26 | CN[C@H]1CCCC[C@@H]1N(C)c1ccc2c(c1)CN(C1CCC(=O)NC1=O)C2=O (stereo partly drawn) [Compound I-8, 3-(5-(methyl((1S,2S)-2-(methylamino)cyclohexyl)amino)-1-oxoisoindolin-2-yl)piperidine-2,6-dione] | 65 | > 50000 | > 50000 | 103 | –
27 | O=C1CCC(N2Cc3cc(N[C@H]4CCC[C@@H]4N4CCCCC4)ccc3C2=O)C(=O)N1 (stereo partly drawn) [Compound I-14, 3-(1-oxo-5-(((1S,2S)-2-(piperidin-1-yl)cyclopentyl)amino)isoindolin-2-yl)piperidine-2,6-dione] | 40 | > 30000 | – | 730 | –
